pEC50: −log10 of the molar value. Several values for one entry are separate records, joined by “and”; a condition that tells them apart may be missing. Identical values can stand only once. Like-named read-outs stand apart in the source and are kept apart here.
Legend:
MDA-MB-231 cells [1] = test: CellTiter-Glo (CTG) ATP viability assay, MDA-MB-231; assay type: cell-based; conditions: for Min Asymptote: MDA-MB-231, Hill fit of luminescence normalized to solvent control, one line per replicate; for pEC50 / DoR CTG: CellTiter-Glo; for pEC50: read-out: EC50, CTG; for DoR CTG: depth of response
Procedure: (§1) CTG (e.g., read by the CTG reader 115) is a cell viability assay that quantifies the amount of ATP present at the end of an experiment as an indicator of the number of live cells. The electronic controller 155 measures ATP content in each condition as a readout by a luminescent signal, which is normalized by the luminescence of the control (e.g., a control well) to determine cell viability relative to on-plate controls. In some embodiments, the CTG assay is performed by first removing 100 μL of media from each well on the well-plate 105, which is then replaced with an equal amount of CellTiter-Glo reagent (e.g., Promega, G7572). Assayed plates may be shaken at 500 RPM for 20 minutes and allowed to rest for 10 minutes. In some instances, 100 μL of volume from each well is transferred to a white 96-well plate (e.g., Perkin Elmer, 6005680). The electronic controller 155 collects luminescence data from each well using an Envision plate reader (e.g., Perkin Elmer) and normalized against the solvent control to measure ATP content. The electronic controller 155 fits a 4-parameter hill curve to the dose response to determine the EC50 and depth of response.

MDA-MB-231 cells [2] = test: Quantitative phase imaging (QPI) growth response, MDA-MB-231; assay type: cell-based; design: DoR QPI: scale not given here; ToR 20 μM: unit not given here; conditions: for Max Asymptote / Min Asymptote: MDA-MB-231, 4-parameter Hill fit of mean SGR vs concentration, one line per replicate; for log10(EC50) / Hill Slope / EC50: MDA-MB-231, Hill fit; for log10(EC50) / EC50: EC50 in μM per Table 1; for pEC50: QPI growth rate, read-out: EC50, QPI; for DoR QPI: depth of response; for ToR 20 μM: time of response at 20 μM; for EC50: read-out: log10(EC50) (converted)
Text: (§2) In some embodiments, breast cancer cell lines are imaged, representing diverse clinical subtypes, summarized in Table 2 below, using a QPI microscope (FIG. 1A) based on differential phase contrast (DPC) microscopy and phase reconstruction via a QPI microscope system. DPC is used for image acquisition and phase reconstruction because DPC's flexible design may be customized for high throughput phase measurements. […] As illustrated in the embodiment of FIG. 1A, a QPI microscope system 100 conducts assays in a 96-well plate (e.g., a well-plate 105) with 6-point dose response curves and up to five therapies in triplicate including solvent controls, summarized in Table 4 below. As described below, in reference to FIG. 1A, a growth response of cells is measured noninvasively using QPI via a QPI microscope system 110 before being assayed using a CTG reader 115.
(§3) FIG. 1B illustrates a timeline plot 200 showing two plates (e.g., two, separate well-plates 105) set up in parallel to measure cell viability. With reference to FIG. 1B, two plates are set-up simultaneously for each experiment. A first plate 205 is incubated for 27 hours (h) post drug exposure prior to CTG analysis (3 h equilibration+24 h of imaging), which measures cell adenosine triphosphate (ATP) content as a surrogate for cell viability. A second plate 210 is imaged for 72 h after 3 h equilibration (e.g., 75 h) and followed by CTG. […] The imaging locations are imaged for 72 h, as shown by images 1700-1715 of FIG. 7.
(§4) In some embodiments, a dose-dependent change in growth, as indicated by a change in the rate of mass accumulation or loss, is a parameter that can be extracted from QPI dose-response data. […] Individual specific growth rate measurements are indicated by points in the distribution of the graph 1200 of FIG. 2A. Blue is indicative of the DMSO control and red is indicative of doxorubicin. The black outline is a kernel density function fit to the distribution of specific growth rates for each condition (e.g., *p<0.05, **p<0.01). In some embodiments, the average SGR of each condition is fit to a sigmoid dose-response curve using a Hill equation. For example, computed logistic fit parameters using a 4-parameter Hill model via the QPI microscope system 110 for all conditions are summarized in Tables 5-8 below. To determine if there is a response, as illustrated by FIG. 2B, the QPI microscope system 110 tests goodness of fit, adjusts for degrees of freedom using an F-test at significance p<0.01 by comparison to a flat line, as an indicator of no response. For cases with a better fit to the Hill equation, the 4-parameter Hill curve may be used by the QPI microscope system 110 to determine the EC50, a measure of sensitivity to therapy because it represents the effective concentration at which 50% of the cells respond to therapy, as illustrated by FIG. 10. […] A 4-parameter Hill curve is fit to each dose response plot to extract the depth of response and EC50 for each cell/drug pair. A flat line represents no response due to failure of the F-test to reject the null hypothesis that the logistic fit is indistinguishable from a flat line. […] Each color indicates a different drug or therapy used.

MCF-7 cells [3] = test: CellTiter-Glo (CTG) ATP viability assay, MCF-7; assay type: cell-based; conditions: for Min Asymptote: MCF-7, Hill fit of luminescence normalized to solvent control, one line per replicate; for DoR CTG: depth of response
Procedure: as §1

BT-474 cells = test: CellTiter-Glo (CTG) ATP viability assay, BT-474; assay type: cell-based; conditions: for Min Asymptote: BT-474, Hill fit of luminescence normalized to solvent control, one line per replicate; for pEC50 / DoR CTG: CellTiter-Glo; for pEC50: read-out: EC50, CTG; for DoR CTG: depth of response
Procedure: as §1

MCF-7 cells [4] = test: cells; conditions: for Max Asymptote / Min Asymptote: MCF-7, 4-parameter Hill fit of mean SGR vs concentration, one line per replicate; for log10(EC50): MCF-7, Hill fit; for DoR QPI: depth of response; for ToR 20 μM: time of response at 20 μM; for pEC50: QPI growth rate
Text: as §2, §3, §4

[5] = 24 h QPI, EC50 in μM per Table 1
[6] = Homo sapiens, MDA-MB-231, MDA-MB-231 cell line

| SMILES | Min Asymptote (MDA-MB-231 cells [1]; 72 h CTG) | DoR CTG (MDA-MB-231 cells [1]; MDA-MB-231 cell line) | Max Asymptote (MDA-MB-231 cells [2]; 24 h QPI) | Min Asymptote (MDA-MB-231 cells [2]; 24 h QPI) | Max Asymptote (MDA-MB-231 cells [2]; 72 h QPI) | Min Asymptote (MDA-MB-231 cells [2]; 72 h QPI) | Hill Slope (MDA-MB-231 cells [2]; 72 h QPI) | DoR QPI (MDA-MB-231 cells [2]; MDA-MB-231 cell line) | ToR 20 μM (MDA-MB-231 cells [2]; MDA-MB-231 cell line) | Min Asymptote (MCF-7 cells [3]; 24 h CTG) | Min Asymptote (MCF-7 cells [3]; 72 h CTG) | DoR CTG (MCF-7 cells [3]; MCF-7 cell line, CellTiter-Glo) | Hill Slope (BT-474 cells; 24 h CTG, BT-474, Hill fit) | Min Asymptote (BT-474 cells; 24 h CTG) | Hill Slope (BT-474 cells; 72 h CTG, BT-474, Hill fit) | log10(EC50) (BT-474 cells; 72 h CTG, BT-474, Hill fit) | Min Asymptote (BT-474 cells; 72 h CTG) | DoR CTG (BT-474 cells; BT-474 cell line) | Max Asymptote (MCF-7 cells [4]; 24 h QPI) | log10(EC50) (MCF-7 cells [4]; [5]) | other results |
| --- | --- | --- | --- | --- | --- | --- | --- | --- | --- | --- | --- | --- | --- | --- | --- | --- | --- | --- | --- | --- | --- |
| CCC(=C(c1ccc(O)cc1)c1ccc(OCCN(C)C)cc1)c1ccccc1 [4HT, 4-hydroxy-Tamoxifen] | 0.003315 and 0.01516 (2×) | 1.0 | 0.02875 and 0.03107 and 0.03303 | 0.007676 and 0.007611 and −0.003024 | −0.006134 and −0.01506 and −0.008455 | 0.02885 and 0.03029 and 0.03246 | 2.0951 and 2.4347 and 1.6101 | 1.3 | 1.0 | 7.96E−12 and 5.22E−09 | 2.23E−14 and 2.22E−14 and 3.01E−12 | 1.0 | 4.596 | 0.07942 | 3.312 and 3.655 | −0.6116 and −0.6471 | 1.76E−08 (2×) and 8.28E−08 | 1.0 | 0.02753 and 0.02505 (2×) | −1.3545 | Hill Slope (MDA-MB-231 cells [1]; 24 h CTG, MDA-MB-231, Hill fit): 5.351; log10(EC50) (MDA-MB-231 cells [1]; 24 h CTG, MDA-MB-231, Hill fit): −0.5158; Min Asymptote (MDA-MB-231 cells [1]; 24 h CTG): 0.393; log10(EC50) (MDA-MB-231 cells [1]; 72 h CTG, MDA-MB-231, Hill fit): −0.9458; pEC50 (MDA-MB-231 cells [1]; MDA-MB-231 cell line): 5.16; log10(EC50) (MDA-MB-231 cells [2]; 24 h QPI): −1.2332 and −1.2248 and −1.2436; log10(EC50) (MDA-MB-231 cells [2]; 72 h QPI): −1.2344 and −1.2249 and −1.0505; growth rate and heterogeneity over time (MDA-MB-231 cells [2]; MDA-MB-231, highest concentration, FIG. 21 F): first decreases in growth rate and then decreases in heterogeneity; mean SGR vs SD of growth parameterized by time (MDA-MB-231 cells [2]; MDA-MB-231, maximal concentration, FIG. 5D): reduction in growth rate before heterogeneity is affected; pEC50 (MDA-MB-231 cells [2]; MDA-MB-231 cell line): 4.82; log10(EC50) (MCF-7 cells [3]; 72 h CTG, MCF-7, Hill fit): −0.5373 and −0.5549 and −0.6776; EC50 (MCF-7 cells [3]; MCF-7 cell line, CellTiter-Glo, read-out: EC50, CTG (converted)): 3.9 µM; log10(EC50) (BT-474 cells; 24 h CTG, BT-474, Hill fit): −0.736; pEC50 (BT-474 cells; BT-474 cell line): 5.38; Min Asymptote (MCF-7 cells [4]; 72 h QPI): 0.02137 and 0.02094 and 0.02499; DoR QPI (MCF-7 cells [4]; MCF-7 cell line): 2.1; ToR 20 μM (MCF-7 cells [4]; MCF-7 cell line): −1.3078; pEC50 (MCF-7 cells [4]; read-out: EC50, QPI, MCF-7 cell line): 4.12 |
| O=c1[nH]cc(F)c(=O)[nH]1 [5FU, 5-Fluorouracil] | 0.4937 | 0.5 | 0.03336 | 0.01996 | −0.009666 | 0.03351 | 0.4483 | 1.2 | 15.2 | 0.9238 | 0.1952 and 0.003653 and 0.01678 | 0.9 | 0.5388 | 0.925 | 1.185 and 1.042 | 0.7667 | 0.938 (2×) and 0.9222 | 0.1 | 0.02676 and 0.02665 (2×) | −1.151 | Hill Slope (MDA-MB-231 cells [1]; 72 h CTG, MDA-MB-231, Hill fit): 1.997; EC50 (MDA-MB-231 cells [1]; Homo sapiens, MDA-MB-231, 72 h, 72 h CTG, MDA-MB-231, Hill fit, read-out: log10(EC50) (converted)): 6 µM; pEC50 (MDA-MB-231 cells [1]; [6]): 5.22; Hill Slope (MDA-MB-231 cells [2]; 24 h QPI): 0.341; EC50 (MDA-MB-231 cells [2]; Homo sapiens, MDA-MB-231, 24 h, 24 h QPI): 17.4 µM; EC50 (MDA-MB-231 cells [2]; Homo sapiens, MDA-MB-231, 72 h, 72 h QPI): 118 µM; pEC50 (MDA-MB-231 cells [2]; [6]): 3.93; Hill Slope (MCF-7 cells [3]; 24 h CTG, MCF-7, Hill fit): 7.081; Hill Slope (MCF-7 cells [3]; 72 h CTG, MCF-7, Hill fit): 1.254 and 1.059 and 1.202; EC50 (MCF-7 cells [3]; Homo sapiens, MCF7, 24 h, 24 h CTG, MCF-7, Hill fit, read-out: log10(EC50) (converted)): 1.89 µM; EC50 (MCF-7 cells [3]; Homo sapiens, MCF7, MCF-7 cell line, CellTiter-Glo, read-out: EC50, CTG (converted)): 10.8 µM; EC50 (BT-474 cells; Homo sapiens, BT-474, 24 h, 24 h CTG, BT-474, Hill fit, read-out: log10(EC50) (converted)): 10.9 µM; pEC50 (BT-474 cells; Homo sapiens, BT-474, BT-474 cell line): 7.00; Min Asymptote (MCF-7 cells [4]; 24 h QPI): 0.01382 and 0.007436 (2×); Min Asymptote (MCF-7 cells [4]; 72 h QPI): 0.0232 and 0.02426 and 0.02866; EC50 (MCF-7 cells [4]; Homo sapiens, MCF7, 24 h, read-out: log10(EC50), 24 h QPI, MCF-7, Hill fit (converted), EC50 in μM per Table 1): 8.57 µM; pEC50 (MCF-7 cells [4]; Homo sapiens, MCF7, read-out: EC50, QPI, MCF-7 cell line): 4.59; DoR QPI (MCF-7 cells [4]; MCF-7 cell line): 1.0; ToR 20 μM (MCF-7 cells [4]; MCF-7 cell line): 9.4 |
